Data on seven compounds can be found in ChEMBL document CHEMBL1201862, “PubChem BioAssay data set” (2004).

Structures are written as SMILES.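 Briefly, cells in 96-well plates were exposed to five compound concentrations for 48 h, and endpoints were estimated by linear interpolation. GI50 is the concentration that inhibits growth by half.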 Calls of active or inactive are those of the source. Rule as the data show it: active = GI50 up to about 1.1 µM and inactive = higher.

What all share (experiment): inhibition of tumour cell growth, NCI panel, 48 h
The test system of experiment [1] is 786-0.
The test system of experiment [2] is MDA-MB-231.
The subject of experiment [3] is OVCAR-8.
Experiment [4] relates to RXF 393.
For experiment [5], the system named is T47D.
The subject of experiment [6] is SNB-19.
Experiment [7] relates to Hs-578T.
Experiment [8] has as its system CCRF-CEM.
Experiment [9] has as its system HCT-116.
For experiment [10], the system named is SK-OV-3.
Experiment [11] relates to A549.
The test system of experiment [12] is BT-549.
The subject of experiment [13] is M14.
Experiment [14] concerns RPMI-8226.
In experiment [15] the test system is SF-539.
Experiment [16] deals with SF-295.
Experiment [17] concerns NCI-H226.
For experiment [18], the system named is UACC-257.
Experiment [19] concerns HOP-92.
Experiment [20] has as its system Malme-3M.

As for `CN(C)CCCC1c2ccccc2Oc2ccc(C(F)(F)F)cc21` (stereo not given), the GI50 is 12.4 µM (inactive) in [1]; 12.8 µM (inactive) in experiment [2]; 16.8 µM (inactive) in [3]; 7.19 µM (inactive) in [4]; 14.6 µM (inactive) in experiment [5]; 16.7 µM (inactive) in experiment [6]. In addition, the GI50 was 14.5 µM (inactive) in experiment [7]; 9.42 µM (inactive) in experiment [8]; 11.7 µM (inactive) in [9]; 16.8 µM (inactive) in experiment [10]; 14.9 µM (inactive) in [11]; 14.2 µM (inactive) in [12]. For the same compound, the GI50 in [13] is 5.75 µM (inactive); in experiment [14], 8.2 µM (inactive); in experiment [15] it was 13.3 µM (inactive); in [16], 16.5 µM (inactive); in [17], 8.2 µM (inactive); in experiment [18] it was 11.6 µM (inactive). The GI50 in experiment [19] was 11.9 µM (inactive); in experiment [20], 2.79 µM (inactive).

For `C/C(=C\CO)CC[C@@H]1[C@@]2(C)CCCC(C)(C)[C@@H]2CC[C@@]1(C)O`, the GI50 in experiment [1] was 20.4 µM (inactive); in experiment [2], 17.3 µM (inactive); in experiment [3], 16.2 µM (inactive); in [4] it was 17.6 µM (inactive); in [5], 18.2 µM (inactive); in experiment [6], 21.3 µM (inactive). Moreover, the GI50 is 24 µM (inactive) in [7]; 20.4 µM (inactive) in [8]; 22 µM (inactive) in [9]; 21.3 µM (inactive) in [10]; 29.6 µM (inactive) in [11]; 18.3 µM (inactive) in experiment [12]. Moreover, the GI50 was 23.4 µM (inactive) in experiment [13]; 17.2 µM (inactive) in [14]; 18.1 µM (inactive) in [15]; 17.6 µM (inactive) in [16]; 18.5 µM (inactive) in [17]; 19.5 µM (inactive) in [18]. The GI50 in [19] is 16.7 µM (inactive); in [20] it was 19.7 µM (inactive).

Regarding `CN(C)/C=N\c1cccc2cnccc12`, the GI50 in [1], in experiment [2], in [3], in experiment [4], in [5] and in [6] was > 100 µM (inactive) each time. Moreover, the GI50 in [7], in [8], in experiment [9], in experiment [10], in experiment [11] and in experiment [12] was > 100 µM (inactive) throughout. The GI50 in [13], in experiment [14], in experiment [15], in [16], in [17] and in experiment [18] was > 100 µM (inactive) in each case. Besides, the GI50 in experiment [19] and in [20] was > 100 µM (inactive) in each case.

As to `COc1c(O)cc2c(c1O)C(=O)C1=C(CCCC1)C2=O`, the GI50 in [1] was 17.3 µM (inactive); in experiment [2], 19 µM (inactive); in [3] it was 20.4 µM (inactive); in [4] it was 14.9 µM (inactive); in experiment [5] it was 17.9 µM (inactive); in experiment [6] it was 31.5 µM (inactive). In addition, the GI50 is 21.8 µM (inactive) in experiment [7]; 1.87 µM (inactive) in experiment [8]; 12.5 µM (inactive) in experiment [9]; 19.8 µM (inactive) in experiment [10]; 26.1 µM (inactive) in [11]; 23 µM (inactive) in experiment [12]. Moreover, the GI50 in [13] is 34.8 µM (inactive); in [14], 9.53 µM (inactive); in [15], 15.6 µM (inactive); in experiment [16] it was 25.2 µM (inactive); in experiment [17], 30.5 µM (inactive); in experiment [18], 34 µM (inactive). The GI50 in experiment [19] was 21.7 µM (inactive); in experiment [20], 25.8 µM (inactive).

On to `CC1=CC(=O)c2c(O)cccc2C1=O` [PLUMBAGIN], for which the GI50 in experiment [1] is 1.65 µM (inactive); in experiment [2] it was 1.92 µM (inactive); in experiment [3] it was 1.69 µM (inactive); in [4] it was 1.64 µM (inactive); in [5], 0.434 µM (active); in experiment [6] it was 12 µM (inactive). In addition, the GI50 in experiment [7] was 2.91 µM (inactive); in experiment [8], 0.208 µM (active); in [9], 1.66 µM (inactive); in [10] it was 14.1 µM (inactive); in experiment [11] it was 11.5 µM (inactive); in [12], 1.7 µM (inactive). Moreover, the GI50 in experiment [13] is 1.86 µM (inactive); in experiment [14] it was 0.891 µM (active); in experiment [15] it was 1.91 µM (inactive); in [16], 11.5 µM (inactive); in experiment [17], 6.55 µM (inactive); in [18] it was 1.81 µM (inactive). The GI50 was 0.465 µM (active) in [19] and 0.966 µM (active) in experiment [20].

In the case of `Cc1cc2c(cc1Cl)S(=O)(=O)OC(c1ccc([N+](=O)[O-])cc1)=N2`, the GI50 in experiment [1], in experiment [2], in experiment [3], in experiment [4], in experiment [5] and in [6] was > 100 µM (inactive) each time. Further, the GI50 in [7], in experiment [8], in experiment [9], in experiment [10], in experiment [11] and in experiment [12] was > 100 µM (inactive) in each case. The GI50 in experiment [13], in experiment [14], in experiment [15], in experiment [16], in experiment [17] and in experiment [18] was > 100 µM (inactive) throughout. Also, the GI50 in experiment [19] and in [20] was > 100 µM (inactive) each time.

In the case of `O=C(CCc1ccccc1)NCCc1ccc(O)c(O)c1`, the GI50 was 21.5 µM (inactive) in experiment [1]; 24.8 µM (inactive) in [2]; 30.3 µM (inactive) in experiment [3]; > 100 µM (inactive) in experiment [4]; 59.4 µM (inactive) in experiment [5]; 48.9 µM (inactive) in [6]. Further, the GI50 in experiment [7] is > 50.1 µM (inactive); in experiment [8], 1.42 µM (inactive); in [9], 27.7 µM (inactive); in experiment [10] it was 27.2 µM (inactive); in experiment [11], 47.5 µM (inactive); in experiment [12] it was 7.01 µM (inactive). In addition, the GI50 in experiment [13] was > 54.8 µM (inactive); in experiment [14] it was 2.54 µM (inactive); in [15] it was 23.2 µM (inactive); in experiment [16] it was > 53.3 µM (inactive); in experiment [17] it was 21.2 µM (inactive); in [18], 44.6 µM (inactive). Further, the GI50 is 17.4 µM (inactive) in [19] and 45.3 µM (inactive) in experiment [20].
